Assay results taken from patent US20220370636A1, “NICOTINAMIDE ADENINE DINUCLEOTIDE ACTIVATOR AND USE THEREOF” (University of South Florida, priority 2021, published 2022).
Entries after “also recorded” stand apart in the source; their conditions may differ.

Assays:
C2C12 cells [1] = test: Scratch (wound closure) assay in C2C12 cells; format: cell-based, mouse; settings: for percent wound closure: 16 h, vs control cells
Method: In vitro model (C2C12 skeletal muscle myoblast) of scratch assay (wound) was created by using pipette tip and recovery of cells was monitored for 16 hours after the scratch. The percent wound closure was measured by the area indicated (FIG. 5B).
Scratch assay in C2C12 cells. C2C12 cells were seeded into either 6-well or 12-well plates and allowed to grow up to 90% confluence. Scratch or wound injury was induced by streaking the plate (2-3 streaks/well) using a 1000 μL sterilized pipette tip in each well. Treatments were performed with the vehicle or P7C3 groups within the cell culture media. Images were taken of each streak immediately after with an Echo Rebel microscope, and the cell culture plates were then placed in the incubator for 16 h. After 16 h, images were obtained at the same location of the streaks utilizing the coordinates marked. The ImageJ software (NIH, USA) was utilized to calculate the areas of the scratches at the 0 h and 16 h time point, with the area at 16 h divided by the area at 0 h to determine the percent wound closure.
Three sets of experiments were performed with this assay to determine the percent wound closure with the P7C3 solution, the P7C3 NPs, the A01B conjugate P7C3 NPs, and the P7C3 scrambled aptamer NPs. For assessing the effects of the P7C3 solution on percent wound closure, the cells were treated with the vehicle control (DMSO) and 100 nM-2 μM P7C3. For determining the effect of P7C3 NPs, the cells were treated with the vehicle control (blank NPs) and 10 nM-1 μM P7C3 NPs. Finally, for the targeted A01B conjugated P7C3 NPs and scrambled aptamer conjugated P7C3 NPs, the cells were treated with the vehicle controls (blank aptamer conjugated NPs) and 100 nM each of both aptamers conjugated NPs.

Nampt = target: T1, Nampt (Mus musculus, UniProt Q99KQ4); test: Gastrocnemius muscle Nampt enzymatic activity in db/db mice; format: in vivo; settings: 4 weeks, vs db-Veh
T1 construct: from tissue; host or cells: whole heart homogenate of db/db mice
T1 sequence (Q99KQ4 whole entry): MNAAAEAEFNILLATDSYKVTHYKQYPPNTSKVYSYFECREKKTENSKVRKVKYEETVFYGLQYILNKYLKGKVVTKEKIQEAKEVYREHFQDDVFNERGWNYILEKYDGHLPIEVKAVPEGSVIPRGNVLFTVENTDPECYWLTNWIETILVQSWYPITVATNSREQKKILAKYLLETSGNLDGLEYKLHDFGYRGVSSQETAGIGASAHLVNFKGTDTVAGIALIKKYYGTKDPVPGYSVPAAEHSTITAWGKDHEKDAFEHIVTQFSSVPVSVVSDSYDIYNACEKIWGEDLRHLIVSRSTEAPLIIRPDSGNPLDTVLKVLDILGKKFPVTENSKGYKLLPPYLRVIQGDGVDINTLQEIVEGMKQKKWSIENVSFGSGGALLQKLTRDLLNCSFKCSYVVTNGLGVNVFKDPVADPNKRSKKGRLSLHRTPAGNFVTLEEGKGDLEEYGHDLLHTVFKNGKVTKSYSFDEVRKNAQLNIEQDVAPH
Description: Nampt enzymatic activity.

db/db mice [2] = test: Ex vivo myofibre contractility and force-frequency relationship of extensor digitorum longus muscle; format: in vivo
Description: Ex vivo myofibre contractility and force-frequency relationship. Animals were euthanized in compliance with University of South Florida IACUC guidelines. The extensor digitorum longus (EDL) muscles of each animal were tied with surgical silk at the proximal and distal tendons and dissected free. Muscles were immediately transferred to a customized vertical organ bath system (Aurora Scientific Inc., Canada) with the suture on the distal tendon clamped in place and that on the proximal tendon tied to a force transducer such that the muscles were positioned between two platinum wirestimulating electrodes. […] Muscles were equilibrated for 10-15 min after which, the optimal muscle length (l0) for each muscle was calculated by adjusting the length until a maximal force response to a single twitch was attained. Following determination of l0, the muscles were subjected to stimulation trains (500 ms duration) of frequencies ranging from 1-125 Hz, 1 per minute to determine the force-frequency relationship (FFR). Stimulation was delivered with a 58800 dual pulse digital stimulator (Grass Products, West Warwick, R.I., USA), and all pulses were 1 ms in duration. The peak forces of each contraction at the different stimulation frequencies were used to plot the FFR. […]

C2C12 cells [3] = test: LPS induced LDH release in C2C12 skeletal myotubes; format: cell-based, mouse; settings: P7C3 1 μM 24 hours
db/db mice [4] = test: Skeletal muscle histology, TEM, SDH staining and mtDNA copy number in db/db mice; format: in vivo
Method: Haematoxylin and eosin staining. The tibialis anterior (TA) muscle was dissected from the mice, and embedded in optimal cutting temperature (OCT), frozen in isopentane chilled in liquid nitrogen and stored at […]. […] Images were obtained at ×10 and ×20 magnifications with the Olympus IX73 inverted microscope and were quantified using CellSens Standard software (Olympus Soft Imaging Solution, USA).
Transmission electron microscopy. The EDL muscles were fixed with 2.5% glutaraldehyde in 0.1 M sodium phosphate buffer for 2 h at RT, and overnight at 4° C., followed by washing in buffer and fixation with 1% osmium tetroxide in buffer for 2 h at 4° C. After rinsing in buffer, the samples were then dehydrated in ethanol and acetone at RT and infiltrated in acetone:pure resin (Embed812) mix in vacuum with desiccant for 1 h and in pure resin for 4 h and embedded in the embedding mix. Polymerization of the embedding mix was carried out overnight at 70° C. in the embedding moulds. Semithin (1 μm) and ultrathin (70 nm) sections were cut using a Reichert Ultracut microtome machine. The sections were then stained with 2% uranyl acetate and contrasted with lead citrate as per standard protocol. Images were taken at ×15,000, ×30,000, and ×50,000 magnifications with a JOEL1400 transmission electron microscope for the analysis of myofibre diameter and the mitochondrial area.
Mitochondrial DNA (mtDNA) copy number. Total DNA was extracted from gastrocnemius (GAS) muscle using DNeasy Blood and Tissue kit (Qiagen, Md., USA) according to the manufacturer's protocol. The quantitative real-time PCR (qPCR) analysis of the mtDNA/nDNA was performed using iTaq Universal SYBR green supermix (Bio-Rad Laboratories, CA, USA). The mouse 16S was used as the mitochondrial gene and HK2 was used as the nuclear gene to obtain the mitochondrial copy number.
Succinate dehydrogenase staining. The 10 μm thick transverse cryosections of TA muscles were cut at the mid-belly region using Leica CM 1860 AgProtect cryostat machine. Briefly, the tissue sections were air-dried for 45 minutes, and incubated in 50 mM sodium succinate dibasic hexahydrate and 1.25 mM nitroblue tetrazolium in 0.1 M phosphate buffer (Sigma-Aldrich, MO, USA) for 30 min. The reaction was stopped washing in deionized water, and the sections were dehydrated in a series of graded ethanol and cleared using xylene. The sections were then mounted with DPX mountant, and the images were captured at ×20 magnification of the Olympus IX73 inverted microscope using CellSens Standard software (Olympus Soft Imaging Solution, USA) and the succinate dehydrogenase (SDH) positive myofibres were quantified with ImageJ software.

[5] = tibialis anterior, H&E, vs db-Veh

With OC(CNc1ccccc1)Cn1c2ccc(Br)cc2c2cc(Br)ccc21 (stereo not shown) [P7C3, 3,6-Dibromo-a-[(phenylamino)methyl]-9H-carbazole-9-ethanol] as the compound, how does the percent wound closure (C2C12 cells [1]; 10 nM) read?
Its percent wound closure is “not significant”.

What about the percent wound closure (C2C12 cells [1]; 100 nM) of the same compound?
The percent wound closure was “not significant”.

And the percent wound closure (C2C12 cells [1]; 500 nM)?
Its percent wound closure is “significantly increased”.

What about the percent wound closure (C2C12 cells [1]; 1 μM) of the same compound?
The percent wound closure was “significantly increased; also recorded: significantly higher”.

And the percent wound closure (C2C12 cells [1]; 2 μM)?
The percent wound closure was “significantly increased”.

And the “gap closure at 16 hrs” value (C2C12 cells [1]; C2C12 cells, 1 μM or 100 nM for 24 hours followed by wire injury)?
The value was “significantly augmented”.

And the “Nampt activity in gastrocnemius muscle” value (Nampt)?
The value was “significant increase”.

What about the “reduced EDL force at higher frequencies seen in db-Veh” value (db/db mice [2]; db/db, 4 weeks) of the same compound?
Its value is “mitigated”.

And the “absolute myofibre force frequency area under curve” value (db/db mice [2]; ex vivo EDL, vs db-Veh)?
Its value is “significant increase”.

And the “LPS induced LDH release (inflammation in vitro)” value (C2C12 cells [3])?
Its value is “attenuated”.

What about the SDH positive myofibres (db/db mice [4]; TA muscle, 4 weeks) of the same compound?
Its SDH positive myofibres is “significantly improved”.

What about the “mitochondria morphology and function” value (db/db mice [4]; TEM, db/db) of the same compound?
The value was “improved”.

And the “myofibre diameter of the extensor digitorum longus muscle” value (db/db mice [4]; TEM, vs db-Veh)?
Its value is “increase”.

What about the “16S expression (mtDNA)” value (db/db mice [4]; gastrocnemius, vs db-Veh) of the same compound?
Its value is “significantly decreased”.

And the “medium and larger sized myofibres cross-sectional areas” value (db/db mice [4]; [5])?
The value was “increase”.

And the “small myofibres cross-sectional areas (0-1500 μm^2)” value (db/db mice [4]; [5])?
The value was “significant decrease”.
